This passage reports IC50 and T/C results from ChEMBL document CHEMBL1129161, “Studies on the active metabolite (DU-86) of KW-2189, a novel derivative of duocarmycin” (Bioorg Med Chem Lett, 1996).

Assay [1] has as its system HeLa. Briefly: Concentration required to inhibit the growth of HeLa S3 cells after 1 hour. The class given is functional, cell-based. The note with it: Homo sapiens.
Assay [2] deals with HeLa. Briefly: Concentration required to inhibit the growth of HeLa S3 cells after 72 hours. The note with it: Homo sapiens. The format is functional, cell-based.
Assay [3] deals with Sarcoma-180. Briefly: Antitumor activity expressed as T/C at an intravenous dose of 8.0 mg/kg in mice implanted subcutaneously with murine sarcoma 180 cells. The class given is functional, Mus musculus.
The test system of assay [4] is Sarcoma-180. Briefly: Antitumor activity expressed as T/C at an intravenous dose of 1.0 mg/kg in mice implanted subcutaneously with murine sarcoma 180 cells. The format is functional, Mus musculus.
Assay [5] has as its system Sarcoma-180. Briefly: Antitumor activity expressed as T/C at an intravenous dose of 0.13 mg/kg in mice implanted subcutaneously with murine sarcoma 180 cells. The format is functional, Mus musculus.

In the case of `COC(=O)c1c2c(n(C)c1C)C(=O)C=C1N(C(=O)c3cc4cc(OC)c(OC)c(OC)c4n3C)C[C@H]3C[C@]123`, the half-maximal inhibitory concentration (IC50) worked out at 890 nM in the assay on HeLa [1] and 230 nM in the assay on HeLa [2]. Besides, the T/C with Sarcoma-180 [3] stood at 0.96.
As for `COC(=O)c1c2c(n(C)c1C)C(=O)C=C1N(C(=O)c3cc4cc(OC)c(OC)c(OC)c4[nH]3)C[C@H]3C[C@]123`, the values for the IC50 in the assay on HeLa [1] and with HeLa [2] were 1.4 nM and 0.069 nM, respectively. This compound also gave a T/C in the assay with Sarcoma-180 [4] of 0.22.
As to `COC(=O)c1c(C)[nH]c2c1[C@@]13C[C@@H]1Cn1c(O)c4nc5c(OC)c(OC)c(OC)cc5c-4c(c13)C2=O`, the IC50 amounted to 36 nM with HeLa [1] and 6.6 nM in the assay on HeLa [2].
For the compound `COC(=O)c1c(C)[nH]c2c1[C@@]13C[C@@H]1CN(C(=O)c1cc4cc(OC)c(OC)c(OC)c4[nH]1)C3=CC2=O`, the T/C in the assay with Sarcoma-180 [5] stood at 0.18.

What is called IC50 is the concentration at which inhibition is half-maximal. A higher IC50 goes with a need for much substance.
